“And” between values parts separate entries of the source, which are not always exact repeats. Identical values can stand only once. Toxic doses and inconclusive results are not listed. Starred links: 1 amine or outer side, 2 acyl side, 3 side chain; linkers in the order of their positions; H or OH if unused. Positions of bridges follow the written chain, without caps; N, C: chain ends. Non-standard residues stand in square brackets, D forms with d. Residues, ends and D or L forms follow the SMILES beside them. Chains are numbered I, II in the order given. Actinocin(1to9) = Cc1c2oc3c(C)ccc(C(=O)[*:2])c3nc-2c(C(=O)[*:1])c(N)c1=O; NMeV = CN[CH](C(=O)O)C(C)C; Sar = CNCC(=O)O
Tested on: BDF1 mice, P388 leukemia ip, median survival T/C
Test: NCI In Vivo Anticancer Drug Screen. Data for tumor model P388 Leukemia (intraperitoneal) in B6D2F1 (BDF1) mice
Conditions: endpoint: median survival time, higher = longer survival
Summary of the method: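 T/C = treated-group survival ÷ vehicle-control survival; tumour transplanted into mice before dosing.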

[1] = dose: 12.5 mg/kg/injection, schedule: Q01DX009 (ip), vehicle: saline with Tween-80

SMILES: CN(C)CCCN1c2ccccc2Sc2ccc(Cl)cc21
- T/C (dose: 6.25 mg/kg/injection, schedule: Q01DX009 (ip), vehicle: saline): 109 % of control
- T/C (dose: 12.5 mg/kg/injection, schedule: Q01DX009 (ip), vehicle: saline): 109 % of control
- T/C (dose: 12.5 mg/kg/injection, schedule: Q04DX003 (ip), vehicle: saline with Tween-80): 104 % of control
- T/C (dose: 12.5 mg/kg/injection, schedule: Q04DX003 (ip), vehicle: saline): 106 % of control
- T/C (dose: 25.0 mg/kg/injection, schedule: Q04DX003 (ip), vehicle: saline with Tween-80): 108 % of control
- T/C (dose: 25.0 mg/kg/injection, schedule: Q04DX003 (ip), vehicle: saline): 89 % of control
- T/C (dose: 50.0 mg/kg/injection, schedule: Q04DX003 (ip), vehicle: saline): 112 % of control

SMILES: CC#CC(=O)O
- T/C [1]: 100 % of control
- T/C (dose: 25.0 mg/kg/injection, schedule: Q01DX009 (ip), vehicle: saline with Tween-80): 106 % of control
- T/C (dose: 50.0 mg/kg/injection, schedule: Q01DX009 (ip), vehicle: saline with Tween-80): 109 % of control
- T/C (dose: 100.0 mg/kg/injection, schedule: Q01DX009 (ip), vehicle: saline with Tween-80): 106 % of control

SMILES: C/C(=N/S(=O)(=O)c1ccc(C)cc1)OCCN(C)C
- T/C (dose: 1.5 mg/kg/injection, schedule: Q01DX009 (ip), vehicle: saline with Tween-80): 104 % of control
- T/C (dose: 3.0 mg/kg/injection, schedule: Q01DX009 (ip), vehicle: saline with Tween-80): 109 % of control
- T/C (dose: 3.0 mg/kg/injection, schedule: Q04DX003 (ip), vehicle: saline with Tween-80): 100 % of control
- T/C (dose: 6.0 mg/kg/injection, schedule: Q01DX009 (ip), vehicle: saline with Tween-80): 118 % of control
- T/C (dose: 6.0 mg/kg/injection, schedule: Q04DX003 (ip), vehicle: saline with Tween-80): 100 % of control

SMILES: O=S(=O)(Nc1ccc(NS(=O)(=O)c2ccccc2)c(S(=O)(=O)c2ccccc2)c1)c1ccccc1
- T/C (dose: 100.0 mg/kg/injection, schedule: Q01DX001 (ip), vehicle: saline with Tween-80): 100 % of control
- T/C (dose: 200.0 mg/kg/injection, schedule: Q01DX001 (ip), vehicle: saline with Tween-80): 100 % of control
- T/C (dose: 400.0 mg/kg/injection, schedule: Q01DX001 (ip), vehicle: saline with Tween-80): 100 % of control

SMILES: Clc1cc(Cl)c(CBr)cc1CBr
- T/C (dose: 3.13 mg/kg/injection, schedule: Q01DX009 (ip), vehicle: saline with Tween-80): 109 % of control
- T/C (dose: 6.25 mg/kg/injection, schedule: Q01DX009 (ip), vehicle: saline with Tween-80): 100 % of control
- T/C [1]: 104 % of control

SMILES: CCC(C)C1NC(=O)C(NC(=O)c2c3nc4c(C(=O)NC5C(=O)NC(C(C)C)C(=O)N6CCCC6C(=O)N(C)CC(=O)N(C)C(C(C)C)C(=O)OC5C)ccc(C)c4oc-3c(C)c(=O)c2N)C(C)OC(=O)C(C(C)C)N(C)C(=O)CN(C)C(=O)C2CCCN2C1=O (stereo not given) (I: TIP[Sar][NMeV] / II: TVP[Sar][NMeV]; ester I:1-I:C, II:1-II:C; linker I:N-II:N via Actinocin(1to9); configuration not given here)
- T/C (dose: 0.05 mg/kg/injection, schedule: Q01DX010 (ip), vehicle: saline): 300 % of control
- T/C (dose: 0.1 mg/kg/injection, schedule: Q01DX010 (ip), vehicle: saline): 100 % of control
- T/C (dose: 0.2 mg/kg/injection, schedule: Q01DX001 (ip), vehicle: water): 175 % of control
- T/C (dose: 0.4 mg/kg/injection, schedule: Q01DX001 (ip), vehicle: water): 155 % of control
- T/C (dose: 0.8 mg/kg/injection, schedule: Q01DX001 (ip), vehicle: water): 175 % of control
- T/C (dose: 3.1 micrograms/kg/injection, schedule: Q01DX001 (ip), vehicle: saline): 118 % of control
- T/C (dose: 3.1 micrograms/kg/injection, schedule: Q01DX010 (ip), vehicle: saline): 180 % of control
- T/C (dose: 3.1 micrograms/kg/injection, schedule: Q04DX003 (ip), vehicle: saline): 118 % of control
- T/C (dose: 6.0 micrograms/kg/injection, schedule: Q01DX010 (ip), vehicle: saline): 180 % of control
- T/C (dose: 6.2 micrograms/kg/injection, schedule: Q01DX010 (ip), vehicle: saline): 190 % of control
- T/C (dose: 6.3 micrograms/kg/injection, schedule: Q01DX001 (ip), vehicle: saline): 109 % of control
- T/C (dose: 12.5 micrograms/kg/injection, schedule: Q01DX009 (ip), vehicle: water): 213 % of control
- T/C (dose: 12.5 micrograms/kg/injection, schedule: Q01DX010 (ip), vehicle: saline): 228 % of control and 220 % of control
- T/C (dose: 25.0 micrograms/kg/injection, schedule: Q01DX009 (ip), vehicle: water): 215 % of control
- T/C (dose: 25.0 micrograms/kg/injection, schedule: Q01DX010 (ip), vehicle: saline): 285 % of control and 220 % of control
- T/C (dose: 25.0 micrograms/kg/injection, schedule: Q04DX003 (ip), vehicle: saline): 154 % of control
- T/C (dose: 50.0 micrograms/kg/injection, schedule: Q01DX001 (ip), vehicle: saline): 150 % of control
- T/C (dose: 50.0 micrograms/kg/injection, schedule: Q01DX009 (ip), vehicle: water): 215 % of control
- T/C (dose: 50.0 micrograms/kg/injection, schedule: Q01DX010 (ip), vehicle: saline): 285 % of control and 300 % of control
- T/C (dose: 50.0 micrograms/kg/injection, schedule: Q04DX003 (ip), vehicle: saline): 190 % of control
- T/C (dose: 75.0 micrograms/kg/injection, schedule: Q04DX003 (ip), vehicle: water): 172 % of control
- T/C (dose: 100.0 micrograms/kg/injection, schedule: Q01DX001 (ip), vehicle: saline): 159 % of control
- T/C (dose: 100.0 micrograms/kg/injection, schedule: Q01DX009 (ip), vehicle: water): 243 % of control
- T/C (dose: 100.0 micrograms/kg/injection, schedule: Q01DX010 (ip), vehicle: saline): 110 % of control
- T/C (dose: 100.0 micrograms/kg/injection, schedule: Q04DX003 (ip), vehicle: saline): 186 % of control
- T/C (dose: 150.0 micrograms/kg/injection, schedule: Q04DX003 (ip), vehicle: water): 181 % of control
- T/C (dose: 200.0 micrograms/kg/injection, schedule: Q01DX001 (ip), vehicle: saline): 186 % of control
- T/C (dose: 200.0 micrograms/kg/injection, schedule: Q01DX010 (ip), vehicle: saline): 90 % of control
- T/C (dose: 200.0 micrograms/kg/injection, schedule: Q04DX003 (ip), vehicle: saline): 231 % of control
- T/C (dose: 300.0 micrograms/kg/injection, schedule: Q04DX003 (ip), vehicle: water): 241 % of control
- T/C (dose: 400.0 micrograms/kg/injection, schedule: Q01DX001 (ip), vehicle: saline): 218 % of control
- T/C (dose: 400.0 micrograms/kg/injection, schedule: Q04DX003 (ip), vehicle: saline): 263 % of control
- T/C (dose: 600.0 micrograms/kg/injection, schedule: Q04DX003 (ip), vehicle: water): 267 % of control

SMILES: O=S(=O)(Cc1ccccc1)C(Cl)(Cl)c1ccccc1
- T/C (dose: 50.0 mg/kg/injection, schedule: Q04DX003 (ip), vehicle: saline with Tween-80): 100 % of control
- T/C (dose: 100.0 mg/kg/injection, schedule: Q04DX003 (ip), vehicle: saline with Tween-80): 104 % of control
- T/C (dose: 200.0 mg/kg/injection, schedule: Q04DX003 (ip), vehicle: saline with Tween-80): 109 % of control

SMILES: CC(NC(=O)OCc1ccccc1)C(=O)NCCN(C)C (stereo not given)
- T/C (dose: 50.0 mg/kg/injection, schedule: Q01DX005 (ip), vehicle: saline): 100 % of control
- T/C (dose: 100.0 mg/kg/injection, schedule: Q01DX005 (ip), vehicle: saline): 91 % of control
- T/C (dose: 200.0 mg/kg/injection, schedule: Q01DX005 (ip), vehicle: saline): 100 % of control

SMILES: COc1cc(C=Nc2cccc(F)c2)ccc1N(CCCl)CCCl
- T/C (dose: 1.25 mg/kg/injection, schedule: Q01DX009 (ip), vehicle: other): 180 % of control
- T/C (dose: 2.5 mg/kg/injection, schedule: Q01DX009 (ip), vehicle: other): 195 % of control
- T/C (dose: 3.13 mg/kg/injection, schedule: Q01DX009 (ip), vehicle: other): 168 % of control
- T/C (dose: 5.0 mg/kg/injection, schedule: Q01DX009 (ip), vehicle: other): 280 % of control
- T/C (dose: 6.25 mg/kg/injection, schedule: Q01DX009 (ip), vehicle: other): 181 % of control
- T/C (dose: 12.5 mg/kg/injection, schedule: Q01DX009 (ip), vehicle: other): 95 % of control
- T/C (dose: 25.0 mg/kg/injection, schedule: Q04DX003 (ip), vehicle: saline sonified): 95 % of control
- T/C (dose: 50.0 mg/kg/injection, schedule: Q04DX003 (ip), vehicle: saline sonified): 100 % of control
- T/C (dose: 100.0 mg/kg/injection, schedule: Q04DX003 (ip), vehicle: saline sonified): 195 % of control

SMILES: O=S(=O)(NS(=O)(=O)c1ccc(Cl)cc1)c1ccc(Cl)cc1
- T/C (dose: 50.0 mg/kg/injection, schedule: Q01DX009 (ip), vehicle: Klucel (hydroxypropylcellulose) (HPC)): 95 % of control
- T/C (dose: 100.0 mg/kg/injection, schedule: Q01DX009 (ip), vehicle: Klucel (hydroxypropylcellulose) (HPC)): 115 % of control
- T/C (dose: 100.0 mg/kg/injection, schedule: Q04DX003 (ip), vehicle: Klucel (hydroxypropylcellulose) (HPC)): 95 % of control
- T/C (dose: 200.0 mg/kg/injection, schedule: Q01DX009 (ip), vehicle: Klucel (hydroxypropylcellulose) (HPC)): 115 % of control
- T/C (dose: 200.0 mg/kg/injection, schedule: Q04DX003 (ip), vehicle: Klucel (hydroxypropylcellulose) (HPC)): 86 % of control
